Assay results reported in ChEMBL document CHEMBL5230154, “Chemical probe of AHL modulators on quorum sensing in Gram-Negative Bacteria and as antiproliferative agents: A review” (Eur J Med Chem, 2021).
Each block holds one molecule with its values, some of them ahead of it.

Assays:
[1] = target: T1, Transcriptional activator protein LuxR (Vibrio fischeri (strain ATCC 700601 / ES114), UniProt P35327); assay: Antagonist activity against LuxR mediated quorum sensing system in Vibrio fischeri ES114 expressing luxI assessed as decrease in luminescence intensity incubated for 4 to 8 hrs by bioluminescence analysis; design: species or system Aliivibrio fischeri
T1 sequence (P35327 whole entry): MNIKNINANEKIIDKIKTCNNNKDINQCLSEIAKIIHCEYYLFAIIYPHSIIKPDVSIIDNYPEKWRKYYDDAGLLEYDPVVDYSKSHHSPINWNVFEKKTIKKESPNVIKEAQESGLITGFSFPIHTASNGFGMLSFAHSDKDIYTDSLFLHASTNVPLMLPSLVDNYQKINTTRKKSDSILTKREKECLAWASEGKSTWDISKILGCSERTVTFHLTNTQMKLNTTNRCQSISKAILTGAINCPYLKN

[2] = target: T2, HTH-type quorum-sensing regulator RhlR (Pseudomonas aeruginosa (strain ATCC 15692 / PAO1 / 1C / PRS 101 / LMG12228), UniProt P54292); assay: Agonist activity against RhlR in Pseudomonas aeruginosa PAO-JP2 expressing prhlI-LVAgfp using CPRG as substrate by spectrophotometric assay
T2 sequence (P54292 whole entry): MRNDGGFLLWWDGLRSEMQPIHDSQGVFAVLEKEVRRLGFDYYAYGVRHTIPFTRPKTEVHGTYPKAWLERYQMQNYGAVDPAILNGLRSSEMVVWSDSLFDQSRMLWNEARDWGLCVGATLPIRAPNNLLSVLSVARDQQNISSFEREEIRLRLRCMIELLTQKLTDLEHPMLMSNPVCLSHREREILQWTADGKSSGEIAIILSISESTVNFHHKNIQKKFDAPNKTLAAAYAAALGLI

[3] = Agonist activity against RhlR in Escherichia coli expressing JLD271/pJN105R2/pSC11-rhlI using CPRG as substrate by spectrophotometric assay
Pseudomonas aeruginosa [4] = assay: Inhibition of quorum sensing system in Pseudomonas aeruginosa MH602 PlasB-gfp(ASV) assessed as inhibition of green fluorescent protein production at 62.5 uM for 20 hrs by fluorescence assay
Pseudomonas aeruginosa [5] = assay: Inhibition of quorum sensing system in Pseudomonas aeruginosa MH602 PlasB-gfp(ASV) assessed as inhibition of green fluorescent protein production at 250 uM for 20 hrs by fluorescence assay
Pseudomonas aeruginosa [6] = assay: Inhibition of quorum sensing system in Pseudomonas aeruginosa MH602 PlasB-gfp(ASV) assessed as inhibition of green fluorescent protein production at 125 uM for 20 hrs by fluorescence assay
Pseudomonas aeruginosa [7] = assay: Inhibition of Pseudomonas aeruginosa MH602 harboring PlasB::gfp(ASV) reporter assessed as decrease in GFP expression at 250 uM incubated for 22 hrs by fluorescence microplate reader analysis
Pseudomonas aeruginosa [8] = assay: Inhibition of biofilm formation in Pseudomonas aeruginosa PAO1 incubated for 12 hrs by crystal violet staining based analysis; assay type: functional
[9] = Inhibition of quorum sensing system in Pseudomonas aeruginosa PAO1 assessed as inhibition of rhamnolipid production at 15 uM incubated for 12 hrs by spectrophotometric assay
[10] = Inhibition of quorum sensing system in Pseudomonas aeruginosa PAO1 assessed as decrease in rhlR expression at 15 uM incubated for 12 hrs by real-time fluorescent quantitative PCR analysis
[11] = Inhibition of quorum sensing system in Pseudomonas aeruginosa PAO1 assessed as decrease in pqsR expression at 15 uM incubated for 12 hrs by real-time fluorescent quantitative PCR analysis
[12] = Inhibition of quorum sensing system in Pseudomonas aeruginosa PAO1 assessed as inhibition of elastase production at 15 uM incubated for 12 hrs by Congo red dye based spectrophotometric assay
[13] = Inhibition of quorum sensing system in Pseudomonas aeruginosa PAO1 assessed as inhibition of pyocyanin production at 15 uM incubated for 12 hrs by spectrophotometric assay
[14] = Inhibition of quorum sensing system in Pseudomonas aeruginosa PAO1 assessed as decrease in lasI expression at 15 uM incubated for 12 hrs by real-time fluorescent quantitative PCR analysis
[15] = target: T3, Transcriptional activator protein LasR (Pseudomonas aeruginosa (strain ATCC 15692 / PAO1 / 1C / PRS 101 / LMG12228), UniProt P25084); assay: Antagonist activity against LasR-mediated quorum sensing system in Pseudomonas aeruginosa PAO1 by spectrophotometric assay
T3 sequence (P25084 whole entry): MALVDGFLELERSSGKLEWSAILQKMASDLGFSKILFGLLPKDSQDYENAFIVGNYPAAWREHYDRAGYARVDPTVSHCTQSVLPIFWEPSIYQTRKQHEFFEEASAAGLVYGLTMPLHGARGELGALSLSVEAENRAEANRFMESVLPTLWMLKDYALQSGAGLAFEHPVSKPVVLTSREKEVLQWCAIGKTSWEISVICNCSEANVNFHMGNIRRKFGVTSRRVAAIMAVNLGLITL

[16] = Inhibition of quorum sensing system in Pseudomonas aeruginosa PAO1 assessed as inhibition of pyocyanin production at 250 uM incubated for 17 hrs by spectrophotometric analysis
[17] = Inhibition of quorum sensing system in Pseudomonas aeruginosa PAO1 assessed as inhibition of pyocyanin production at 32 uM incubated for 17 hrs by spectrophotometric analysis
Pseudomonas aeruginosa [18] = assay: Inhibition of quorum sensing system in Pseudomonas aeruginosa MH602 expressing PlasB::gfp assessed as inhibition of GFP fluorescence expression at 250 uM incubated for 15 hrs by fluorescence microplate reader analysis
Pseudomonas aeruginosa [19] = assay: Inhibition of quorum sensing system in Pseudomonas aeruginosa MH602 PlasB-gfp(ASV) assessed as inhibition of green fluorescent protein production at 62.5 to 250 uM for 20 hrs by fluorescence assay; conditions: dose 62.5-250 µM
Pseudomonas aeruginosa [20] = assay: Inhibition of Pseudomonas aeruginosa MH602 harboring PlasB::gfp(ASV) reporter assessed as decrease in GFP expression at 125 uM incubated for 22 hrs by fluorescence microplate reader analysis
[21] = target: T4, Transcriptional activator protein LasR (Pseudomonas aeruginosa (strain ATCC 15692 / PAO1 / 1C / PRS 101 / LMG12228)) (UniProt P25084); assay: Antagonist activity against LasR-mediated quorum sensing system in Pseudomonas aeruginosa PAO1 assessed as inhibition of pyocyanin production at 200 uM incubated for 13 hrs by spectrophotometric assay; conditions: filed as antagonist
T4 sequence (whole entry): T3 sequence (P25084 whole entry)

Escherichia coli = assay: Antagonist activity against quorum sensing system in Pseudomonas aeruginosa PAO1 assessed as inhibition of 3OC6HSL- induced GFP expression at 50 uM by fluorescence analysis; conditions: filed as antagonist

IC50 [1]: 600 nM
SMILES: O=C(Cc1ccc(I)cc1)N[C@H]1CCOC1=O

IC50 [1]: 600 nM
SMILES: O=C(Cc1ccccc1)N[C@H]1CCOC1=O

SMILES: O=C(CC1CCC1)N[C@H]1CCOC1=O
EC50 [2]: 1410 nM | EC50 [3]: 1780 nM

IC50 [1]: 600 nM
SMILES: O=C(Cc1ccc(-c2ccccc2)cc1)N[C@H]1CCOC1=O

inhibition (Pseudomonas aeruginosa [4]): 52.9% | inhibition (Pseudomonas aeruginosa [5]): 65% | inhibition (Pseudomonas aeruginosa [6]): 60.5%
SMILES: O=C(Cn1cc(-c2ccc(Cl)cc2)nn1)Nc1nc2ccccc2[nH]1

SMILES: Cc1ccc2c(c1)C(=O)C(=O)NCc1cnnn1CC(=O)Nc1ccc(C)cc1C(=O)C(=O)NCc1cnnn1CC(=O)N2
inhibition (Pseudomonas aeruginosa [7]): 58.6%

SMILES: C/C=C/CCC(=O)N[C@H]1CCOC1=O
EC50 [3]: 6930 nM

inhibition [9]: 25.8% | inhibition [10]: 58.8% | inhibition [11]: 45% | inhibition [12]: 16.5% | inhibition [13]: 31.6% | inhibition [14]: 26.9% | IC50 [15]: 17400 nM
SMILES: CC1=C(Br)/C(=C(\C)Br)OC1=O
inhibition (INH) (Pseudomonas aeruginosa [8]): 28.6%

SMILES: O=C(CCC1CC1)N[C@H]1CCOC1=O
EC50 [3]: 2760 nM

inhibition (Pseudomonas aeruginosa [4]): 25% | inhibition (Pseudomonas aeruginosa [5]): 42% | inhibition (Pseudomonas aeruginosa [6]): 34%
SMILES: CCc1cn(CC(=O)Nc2nc3ccccc3[nH]2)nn1

inhibition [16]: 90% | inhibition [17]: 80% | inhibition (Pseudomonas aeruginosa [18]): 81.7%
SMILES: O=C1C(Cl)=C(Cl)CN1c1ccccc1

inhibition (Pseudomonas aeruginosa [19]): 63.7%
SMILES: O=C(Cn1cc(-c2ccc([N+](=O)[O-])cc2)nn1)Nc1nc2ccccc2[nH]1

inhibition (Pseudomonas aeruginosa [19]): 28.2%
SMILES: O=C(Cn1cc(-c2cccc([N+](=O)[O-])c2)nn1)Nc1nc2ccccc2[nH]1

SMILES: C#CNC(=O)C(=O)c1cc(C)ccc1NC(=O)CCl
inhibition (Pseudomonas aeruginosa [7]): 36.9% | inhibition (Pseudomonas aeruginosa [20]): 64.6%

inhibition (Pseudomonas aeruginosa [19]): 32%
SMILES: Cc1ccc(-c2cn(CC(=O)Nc3nc4ccccc4[nH]3)nn2)cc1

inhibition [21]: 67%
SMILES: CCCCCCCCCC(=O)CC(=O)Nc1cccc(I)c1

inhibition [16]: 90% | inhibition [17]: 80% | inhibition (Pseudomonas aeruginosa [18]): 80.4%
SMILES: Nc1cccc(N2CC(Cl)=C(Cl)C2=O)c1

inhibition [16]: 90% | inhibition [17]: 80% | inhibition (Pseudomonas aeruginosa [18]): 80.7%
SMILES: O=C1C(Br)=C(Br)CN1c1ccccc1

inhibition [9]: 16.7% | inhibition [11]: 57.5% | inhibition [12]: 18.4% | inhibition [13]: 30.3% | inhibition [14]: 39.2%
SMILES: COc1ccccc1NC(=O)NC(=O)CSC(=S)N[C@H]1CCOC1=O
inhibition (INH) (Pseudomonas aeruginosa [8]): 40.3%

SMILES: CCCCC(=O)N[C@H]1CCSC1=O
EC50 [2]: 3820 nM | EC50 [3]: 4870 nM

inhibition (Pseudomonas aeruginosa [5]): 20% | inhibition (Pseudomonas aeruginosa [6]): 5.16%
SMILES: COc1ccc(-c2cn(CC(=O)Nc3nc4ccccc4[nH]3)nn2)cc1

inhibition (Pseudomonas aeruginosa [19]): 57.5%
SMILES: O=C(Cn1cc(-c2ccc(C(F)(F)F)cc2)nn1)Nc1nc2ccccc2[nH]1

inhibition [9]: 22.2% | inhibition [13]: 15.1% | inhibition [14]: 32.9%
SMILES: O=C(CCSc1nc2ccccc2s1)N[C@H]1CCOC1=O
inhibition (INH) (Pseudomonas aeruginosa [8]): 38%

inhibition (Escherichia coli): 53.5%
SMILES: CCOC(=O)/C=C1\CC(NCc2cccs2)C(=O)N1Cc1cccs1 (stereo unspecified)

SMILES: CCCCCC(=O)N[C@H]1CCOC1=O
EC50 [3]: 10800 nM

SMILES: CC(C)CCCC(=O)N[C@H]1CCOC1=O
EC50 [2]: 1020 nM | EC50 [3]: 1420 nM
